In the OPERA property sets (Mansouri et al. 2018):

CC(=O)Oc1cccc(OC(C)=O)c1C(N)=O
logP: -0.62

CCNC(=O)NS(=O)(=O)c1ccc(Cl)cc1
logP: 1.79

Nc1ncnc2c1ncn2C1C=CC(CO)O1 (stereo unspecified)
logP: -0.5

CCN(CC)CCC(=O)Nc1c(C)cccc1C
logP: 2.21

COCc1cnc(-c2ccc(OCC(O)CNCCc3ccc(OC)c(OC)c3)cc2)[nH]1 (stereo unspecified)
logP: 1.71

c1ccc(CC2=NCCN2)cc1
logP: 2.65

CC1=CC(=O)C(C(C)C)=CC1=O
logP: 2.2

CCCCCCC(C)(C)c1ccc(C2CC(O)CCC2C)c(O)c1 (stereo unspecified)
logP: 7.49

OC(CN1CCOCC1)(c1ccc(F)cc1)c1ccc(-c2ccncc2)cc1 (stereo unspecified)
logP: 2.82

CCCC(=O)c1ccccc1
logP: 2.77

CC(=O)OC(C(=O)ON=C(C)C12CC3CC(CC(C3)C1)C2)c1ccccc1 (stereo unspecified)
logP: 5.89

CCOC(=O)Cn1nc2ccccc2n1
logP: 1.85

Clc1ccc(-c2ccccc2Cl)cc1
logP: 5.09

CCOC(=O)OCCC(SC(=O)OCC)=C(C)N(C=O)CC1=C(C(=O)OCOC(=O)C(C)(C)C)N2C(=O)C(NC(=O)C(=NOC)c3csc(N)n3)C2SC1 (stereo unspecified)
logP: 3.34

CCCCCCCCc1ccccc1
logP: 6.3

OC(CCN1CCCCC1)(c1ccccc1)C1CC2C=CC1C2 (stereo unspecified)
logP: 4.25

CCOC1OC(CO)C(O)C(O)C1O (stereo unspecified)
logP: -2.28

O=C(c1cccc(C(F)(F)F)c1)c1ccc2n1CCC2C(=O)O (stereo unspecified)
logP: 3.69

CCCCCCCCCCCC(=O)CC(=O)Nc1c(OC)cc(OC)cc1OC
logP: 5.02

CCc1ccc(NC(=O)CN2CCCCC2)cc1
logP: 3.52

CCOc1cccc(NC(=O)CN2CCCCC2)c1
logP: 3.17

Brc1cccc(N=C2NCCN2)c1Br
logP: 2.16

CC1(C)NC(=Nc2ncc([N+](=O)[O-])s2)OC1(C)C
logP: 2.4

CCc1ccc(C)cc1
logP: 3.63

CC(=O)c1c(O)c(C)c(O)c2c1OC1=CC(=O)C(C(C)=O)C(=O)C12C (stereo unspecified)
logP: 2.88

CCCCCCC(C)(C)c1ccc(C2CCCC(O)C2)c(O)c1 (stereo unspecified)
logP: 6.68

COc1cc(C(=O)OC2N=C(c3ccccc3)c3cc(Cl)ccc3NC2=O)cc(OC)c1OC (stereo unspecified)
logP: 3.75

CCCCCCC(C)(C)c1ccc(C2CC(O)CCC2CCCO)c(O)c1 (stereo unspecified)
logP: 6.13

CCC(O)(C(N)=O)c1ccccc1 (stereo unspecified)
logP: 1.2

Cc1c(Br)cccc1N=C1NCCN1
logP: 1.94

O=C(O)C=Cc1ccc2c(c1)OCO2
logP: 2.59

CCc1cc(CC)cc(C2C(=O)c3ccccc3C2=O)c1
logP: 4.94

O=C(c1ccc(Cl)cc1Cl)c1ccc2n1CCC2C(=O)O (stereo unspecified)
logP: 3.56

CON=C(C(=O)N[C@@H]1C(=O)N2C(C(=O)O)=C(COC(N)=O)CS[C@H]12)c1ccco1
logP: -0.16

CCOP(=O)(NC)ON=C(C#N)c1ccc(Cl)cc1 (stereo unspecified)
logP: 2.5

OC(CN1CCCC1)(c1ccc(F)cc1)c1ccc(-c2ccncc2)cc1 (stereo unspecified)
logP: 3.84

C=C(C)C(=O)OCC(C)(C)COC(=O)C(=C)C
logP: 2.79

c1ccc(-c2cnc3ccccc3n2)cc1
logP: 3.48

N[C@@H](Cc1ccc(O)c(O)c1)C(=O)O
logP: -2.39

Fc1ccc(Cl)c(N=C2NCCN2)c1
logP: 1.52

c1ccc(-c2ccc(-c3ccccc3)cc2)cc1
logP: 6.03

Cc1ccccc1C(OCCN(C)C)c1ccccc1 (stereo unspecified)
logP: 3.77

Cc1cc(Br)cc(C(=O)NC(C)C)c1O
logP: 4.19

O=C1C(N2CCN(CCO)CC2)=C(N2CC2)C(=O)C(N2CCN(CCO)CC2)=C1N1CC1
logP: -0.77

Nc1ncc(Cc2cc3c(cc2Br)OCO3)c(N)n1
logP: 2.48

CC1Cc2ccccc2CN1 (stereo unspecified)
logP: 1.93

CN(C)c1nc(N(C)C)nc(N(C)O)n1
logP: 1.61

O=C(O)c1ccc(Cl)cc1Nc1ccc(Cl)cc1
logP: 4.97

Clc1ccc(-c2cccc(Cl)c2)cc1
logP: 5.15

Clc1cccc(-c2cccc(Cl)c2)c1
logP: 5.27

CCCCCC(CCC)C(=O)O (stereo unspecified)
logP: 3.2

CCOC(=O)CC[C@H](NC(=O)c1ccc(N(C)Cc2cnc3nc(N)nc(N)c3n2)cc1)C(=O)OCC
logP: 0.98

O=[N+]([O-])c1ccc(Cc2ccncc2)cc1
logP: 2.88

CCN(CC)CCCCCCC(=O)Nc1c(C)cccc1C
logP: 3.48

Nc1ccc(S(=O)(=O)Nc2ccc([N+](=O)[O-])cc2)cc1
logP: 2.14

CCCCCCC(C)(C)c1cc(O)c2c(c1)OC(C)(C)C1CCC(C=O)=CC21 (stereo unspecified)
logP: 8.03

Nc1ncnc2c1ncn2[C@H]1CC[C@@H](CO)O1
logP: -0.25

O=[N+]([O-])c1cnc(N=C2NCCO2)s1
logP: 0.57

Cc1cc(C)c(O)c(C)c1
logP: 2.73

COCCNC(=O)COc1ccc(OCCNCC(O)COc2ccccc2)cc1 (stereo unspecified)
logP: 1.7

Nc1nnc(CCc2ccccc2)o1
logP: 1.19

Cc1cnc2n(c1=O)C(C)CCC2 (stereo unspecified)
logP: 0.82

CC(=O)O[C@H]1C[C@H](O[C@H]2[C@@H](O)C[C@H](O[C@H]3[C@@H](O)C[C@H](O[C@H]4CC[C@@]5(C)[C@H](CC[C@@H]6[C@@H]5C[C@@H](O)[C@]5(C)[C@@H](C7=CC(=O)OC7)CC[C@]65O)C4)O[C@@H]3C)O[C@@H]2C)O[C@H](C)[C@H]1O
logP: 1.97

O=[N+]([O-])c1cc(F)cc(F)c1
logP: 2.03

CCCc1ccc(O)cc1
logP: 3.2

CC(=O)Oc1cc(OC(C)CCCc2ccccc2)cc2c1C1CC(O)CCC1C(C)N2C (stereo unspecified)
logP: 5.72

COc1cc(CCN)cc(OC)c1OCc1ccccc1
logP: 2.4

CCCn1c(=O)n(C)c(=O)c2nc[nH]c21
logP: 1.02

Cc1cc(=O)oc2c1ccc1occc12
logP: 2.32

CCCCCCCCCCCCCCCC(=O)O
logP: 7.17

Cc1ccc(N2Cn3c(nc4ccccc4c3=O)C2C)cc1 (stereo unspecified)
logP: 2.16

COc1cccc(NC(=O)CN2CCCCC2)c1
logP: 2.71

Oc1ccc2cc(O)ccc2c1
logP: 1.9

OC(Cn1ccnc1)(c1ccc(Cl)cc1)c1ccc(-c2ccncc2)cc1 (stereo unspecified)
logP: 3.27

Cc1cccc(C2C(=O)c3ccccc3C2=O)c1
logP: 3.46

Cc1cc(C)cc(NS(=O)(=O)c2ccc(N)cc2)c1
logP: 2.52

CCCCCC=CCC=CCCCCCCCC(=O)O
logP: 7.05

Cc1ccc(CCN)cc1
logP: 1.83

CCc1cccc(C2C(=O)c3ccccc3C2=O)c1
logP: 3.92

N[C@@H](Cc1cnccn1)C(=O)O
logP: -2.79

Cc1ccc2c(c1)C(c1ccccc1)=NCC(=O)N2
logP: 2.62

CCS[C@@H]1O[C@H](CO)[C@H](O)[C@H](O)[C@H]1O
logP: -1.51

CCOC(=O)C(CC)(CC)C(=O)NC(N)=O
logP: 1.45

CC(C(=O)O)c1ccc(N2Cc3ccccc3C2=O)cc1 (stereo unspecified)
logP: 2.77

OC(Cn1ccnc1)(c1ccc(F)cc1)c1ccc(-c2ccccn2)cc1 (stereo unspecified)
logP: 3.58

NS(=O)(=O)c1nc2c(Cl)cc(Cl)cc2s1
logP: 2.6

Cc1ccc(S(=O)(=O)NC(=O)NC2CCCCC2)cc1
logP: 2.9

Cc1cc(Br)cc(C)c1N=C1NCCN1
logP: 2.8

Nc1ncc(Cc2cccc(Cl)c2)c(N)n1
logP: 2.29

Cn1c([N+](=O)[O-])cnc1C=Cc1ccncn1
logP: 0.85

Nc1nc2c(ncn2COC(CO)CO)c(=O)[nH]1
logP: -1.66

CCCCCCCCc1ccc(C2C(=O)c3ccccc3C2=O)cc1
logP: 6.93

C[C@@H]1CC2=CC(=O)CC[C@@H]2[C@H]2CC[C@@]3(C)[C@@H](CC[C@]3(C)O)[C@@H]21
logP: 3.19

CNC(Cc1ccccc1)Cc1ccccc1
logP: 3.8

CC(C)(C)c1ccc(C2C(=O)c3ccccc3C2=O)cc1
logP: 4.88

CSC(C)=NOC(=O)N(C)SN(C)C(C)=O
logP: 1.3
